Data taken from patent US20120035320A1, “POLYACRIDINE NUCLEIC ACID DELIVERY PEPTIDE COMPLEXES” (University of Iowa Research Foundation, priority 2010, published 2012).
No end group written: not given here. Acr = acridine on the lysine ε-amine; PEG = not defined here

Tests used:
[1] = test system: liver; assay: hydrodynamic stimulation and bioluminescence imaging of luciferase expression; type: in vivo, mice; details: 1 μg pGL3 dose, HD stimulation after 30 min, 24 hrs
Description: pGL3 (1 μg) was prepared in a volume of normal saline corresponding to 9 wt/vol % of the mouse's body weight (1.8-2.25 ml based on 20-25 g mice). The DNA dose was administered by tail vein to 4-5 mice in 5 sec according to a published procedure (Liu F, Song Y, Liu D. Hydrodynamics-based transfection in animals by systemic administration of plasmid DNA. Gene Ther 1999; 6: 1258-1266; Zhang G, Budker V, Wolff J A. High levels of foreign gene expression in hepatocytes after tail vein injections of naked plasmid DNA. Human Gene Therapy 1999; 10: 1735-1737). Mice (4-5) were also dosed tail vein with 1 μg of PEGylated polyacridine polyplex in 50 μl of HBM (5 mM Hepes, 0.27 M mannitol, pH 7.4). At times ranging from 5-120 min, a stimulatory hydrodynamic dose of normal saline (9 wt/vol % of the body weight) was administered over 5 sec. At 24 hrs post-DNA dose, mice were anesthetized by 3% isofluorane, then administered an i.p. dose of 80 μl (2.4 mg) of D-luciferin (30 μg/μl in phosphate-buffered saline). At 5 min following the D-luciferin dose, mice were imaged for bioluminescence (BLI) on an IVIS Imaging 200 Series (Xenogen). BLI was performed in a light-tight chamber on a temperature-controlled, adjustable stage while isofluorane was administered by a gas manifold at a flow rate of 3%. Images were acquired at a ‘medium’ binning level and a 20 cm field of view. Acquisition times were varied (1 sec^−1 min) depending on the intensity of the luminescence. The Xenogen system reported bioluminescence as photons/sec/cm^2/seradian in a 2.86 cm diameter region of interest covering the liver. The integration area was transformed to pmols of luciferase in the liver using a previously reported standard curve (Rettig G et al. Quantitative Bioluminscence Imaging of Transgene Expression In Vivo. Analytical Biochemistry 2006; 335: 90-94). The results were determined to be statistically significant (p≦0.05) based on a two-tailed unpaired t-test.

[2] = following i.v. dosing; Collard et al. 2000; cited from earlier work
[3] = test system: DC-SIGN (+) and (−) CHO cells; assay: in vitro transfection with glycopeptide DNA polyplexes; type: cell-based, human; details: luciferase, 24 hrs
Description: DC-SIGN (+) CHO cells (1×10^5) were plated in 6-well plates in triplicate in 1 ml DMEM high glucose supplemented with 7% FBS and 1% MEM non-essential amino acids. After incubation for 24 hrs at 37° C. in 5% CO2, the media was removed, the cells were washed with 1 ml DPBS, replaced with 1 ml DMEM high glucose media supplemented with 2% FBS and 0.3% MEM non-essential amino acids.
Cells were transfected in triplicate for 24 hrs with pGL3 polyplexes (1 μg DNA and 0.6 nmol of glycopeptide in a total volume of 30 μl). The efficiency of glycopeptide DNA polyplex transfection was compared with PEI-DNA transfection performed by combining 1 μg DNA with 1.2 μg of PEI (N:P of 9) in 100 μl of 5 mM Hepes, 270 mM mannitol, pH 7.4. After 24 hrs, cells were washed with 2 ml of DPBS and lysed with 0.5 ml of lysis buffer (25 mM tris chloride, 1 mM EDTA, 8 mM magnesium chloride, 1% Triton X-100, pH 7.8) for 10 min at 4° C. […] The relative light units were determined with 10 sec integration after automatic injection of 100 μl of 0.43 mM D-luciferin. Protein concentrations were measured by a BCA assay with bovine serum albumin as a standard (Smith, P. K., Krohn, R. I., Hermanson, G. T., Mallia, A. K., Gartner, F. H., Provenzano, M. D., Fujimoto, E. K., Goeke, N. M., Olson, B. J., and Klenk, D. C. (1985) Measurement of protein using bicinchoninic acid. Anal Biochem 150, 76-85). […]

[4] = test system: Mice; assay: IM-EP of Man9-(Acr-Lys)6 DNA in mice; type: in vivo; details: intramuscular electroporation, 1 μg DNA
Description: (§1) We tested Man9-N-glycan polyacridine peptides as a DNA vaccine adjuvant for use in combination with an intramuscular electroporation apparatus. […] The Man9-(Acr-Lys)6 (SEQ ID NO: 42) that we used for this study has the following structure of In certain embodiments the compound is Formula IVb: […]
The inventors obtained mouse data illustrating the electroporation apparatus expression of Man9-(Acr-Lys)6 (SEQ ID NO: 42) DNA (1 μg) at 0 and 0.012 nmoles of Man9-(Acr-Lys)6 (SEQ ID NO: 42) per μg of DNA (FIG. 32). The luciferase gene expression was equivalent at 0, 0.003 and 0.006 nmols of Man9 per μg of DNA, and then decreased at 0.0125 nmols of Man9 and higher. 0.0125 nmols of Man9-(Acr-Lys)6 (SEQ ID NO: 42) per μg of DNA corresponds 40 copies of Man9 per plasmid.

[5] = test system: plasmid; assay: DNA band shift assay of Man9-(Acr-Lys)6; type: binding
Source text: as §1

PEG-Cys-Trp-Lys18: PEGylated polylysine peptide control, SEQ ID NO: 34 (C(PEG)WKKKKKKKKKKKKKKKKKK; reading uncertain)
stimulated luciferase expression of controls [1]: failed to produce measurable expression | stimulated luciferase expression of controls ([1]; listed as PEGylated-Cys-Trp-Lys18): no detectable luciferase expression | complete metabolism of plasmid DNA in the circulation [2]: ≤ 3 min

Cys-(Acr-Lys)4: DNA binding polyacridine peptide with N-terminal Cys, prepared with Fmoc-Lys(Acr); SEQ ID NO: 23
selectivity of gene transfer for CHO (+) or (−) cells [3]: did not demonstrate selectivity

Man9-(Acr-Lys)6: Iodoacetamide Man9 N-glycan reacted with Cys(Acr-Lys)6; Formula IVb (K(Acr)KK(Acr)KK(Acr)KK(Acr)KK(Acr)KK(Acr)K; not fully specified (N-terminus); also: Man9 N-glycan attached via iodoacetamide to a Cys not shown in chain)
luciferase gene expression at 0, 0.003 and 0.006 nmols of Man9 per μg of DNA [4]: equivalent | luciferase gene expression at 0.0125 nmols of Man9 and higher [4]: decreased | copies bound to plasmid [5]: up to 40 copies
